# In patent US20070093416A1, “Human beta-defensin secretion promoter” (priority 2003, published 2007):
# System: β-defensin-2
# Assay: β-Defensin Secretion Promotion Confirmatory Test-3 (Concentration Dependency)
# Type: in vivo, human
# Conditions: 3 healthy adults
# Procedure: To evaluate β-defensin secretion promotion effects and concentration dependency of an organic acid, the following tests were conducted using 3 healthy adults as subjects. Saliva secreted for 3 minutes from rested subjects was collected by a spitting method (hereunder, this is referred to as the control). Thereafter, 1 ml of 0.01 wt % malic acid (amount of malic acid ingested: 0.1 mg) was placed in the oral cavity, held for one minute, and then collected together with the secreted saliva. The concentration of β-defensin-2 in the saliva was measured by ELISA, and the amount of β-defensin-2 secreted over one minute using 0.1 mg of malic acid was calculated based on the formula below. Note that the saliva amount (ml) in the formula below was calculated based on the weight of the collected saliva (g) assuming 1 g of saliva=1 ml of saliva. The same test was conducted, respectively, using 0.05, 0.1, 0.2, 0.5, or 1 wt % malic acid aqueous solution (amounts of ingested: 0.5, 1, 2, 5, and 10 mg). [table]
compound,measurement,setting,value
O=C(O)CC(O)C(=O)O (centres unmarked) [malic acid],amount of β-defensin-2 secreted in saliva,"1 ml of 0.01-1 wt % malic acid aqueous solution (0.1-10 mg) held in oral cavity for one minute, FIG. 3",increases depending on the concentration
same,human β-defensin-2 secretion induction effect,"concentration of 0.01% (amount ingested: 0.1 mg), 1 ml held in oral cavity for one minute",has a human β-defensin-2 secretion induction effect
